Values belong to the molecule of their own block, whether it stands above or below them.
How the values were obtained:
Test in all cases: Competitive isoTOP-ABPP in situ (fragment-treated cells)
Type in all cases: cell-based
[1] = biological target: cysteines in MDA-MB-231 and Ramos cells (Homo sapiens, UniProt O75362)
[2] = biological target: T1, cysteines in MDA-MB-231 and Ramos cells (Homo sapiens, UniProt P55265); settings: 200 μM, insitu
T1 sequence (P55265 1-1226): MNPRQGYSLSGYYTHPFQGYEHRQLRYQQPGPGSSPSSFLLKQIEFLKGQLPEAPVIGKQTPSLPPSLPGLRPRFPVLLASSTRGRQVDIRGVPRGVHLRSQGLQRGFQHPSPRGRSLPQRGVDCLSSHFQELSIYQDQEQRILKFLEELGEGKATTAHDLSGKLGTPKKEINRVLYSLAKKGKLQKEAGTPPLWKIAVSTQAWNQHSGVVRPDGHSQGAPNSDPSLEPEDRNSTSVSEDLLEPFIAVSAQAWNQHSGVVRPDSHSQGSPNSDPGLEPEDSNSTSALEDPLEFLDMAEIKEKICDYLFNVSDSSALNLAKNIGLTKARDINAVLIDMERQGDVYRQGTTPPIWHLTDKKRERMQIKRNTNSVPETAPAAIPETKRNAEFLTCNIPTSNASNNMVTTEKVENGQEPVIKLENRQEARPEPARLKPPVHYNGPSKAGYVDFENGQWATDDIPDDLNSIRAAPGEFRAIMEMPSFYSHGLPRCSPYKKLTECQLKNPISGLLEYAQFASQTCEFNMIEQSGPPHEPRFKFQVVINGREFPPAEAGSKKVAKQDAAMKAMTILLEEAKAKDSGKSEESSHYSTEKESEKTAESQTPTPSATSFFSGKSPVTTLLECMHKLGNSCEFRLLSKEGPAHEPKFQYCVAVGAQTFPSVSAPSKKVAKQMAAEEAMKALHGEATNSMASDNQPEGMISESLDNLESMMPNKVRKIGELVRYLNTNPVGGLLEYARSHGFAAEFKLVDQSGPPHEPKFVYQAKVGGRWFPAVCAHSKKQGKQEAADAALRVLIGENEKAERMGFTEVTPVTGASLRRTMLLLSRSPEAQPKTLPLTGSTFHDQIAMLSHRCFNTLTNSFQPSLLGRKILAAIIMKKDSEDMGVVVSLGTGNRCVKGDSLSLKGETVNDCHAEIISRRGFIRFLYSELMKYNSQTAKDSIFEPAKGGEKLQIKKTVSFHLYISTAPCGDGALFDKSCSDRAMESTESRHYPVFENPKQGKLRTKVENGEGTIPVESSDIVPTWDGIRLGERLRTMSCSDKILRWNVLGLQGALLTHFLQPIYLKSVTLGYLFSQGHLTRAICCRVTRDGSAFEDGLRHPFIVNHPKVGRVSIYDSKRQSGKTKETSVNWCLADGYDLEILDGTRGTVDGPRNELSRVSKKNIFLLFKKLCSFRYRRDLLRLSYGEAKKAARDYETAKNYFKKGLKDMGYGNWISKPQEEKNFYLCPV

[3] = biological target: T2, cysteines in MDA-MB-231 and Ramos cells (Homo sapiens, UniProt Q15398)
T2 sequence (Q15398 1-846): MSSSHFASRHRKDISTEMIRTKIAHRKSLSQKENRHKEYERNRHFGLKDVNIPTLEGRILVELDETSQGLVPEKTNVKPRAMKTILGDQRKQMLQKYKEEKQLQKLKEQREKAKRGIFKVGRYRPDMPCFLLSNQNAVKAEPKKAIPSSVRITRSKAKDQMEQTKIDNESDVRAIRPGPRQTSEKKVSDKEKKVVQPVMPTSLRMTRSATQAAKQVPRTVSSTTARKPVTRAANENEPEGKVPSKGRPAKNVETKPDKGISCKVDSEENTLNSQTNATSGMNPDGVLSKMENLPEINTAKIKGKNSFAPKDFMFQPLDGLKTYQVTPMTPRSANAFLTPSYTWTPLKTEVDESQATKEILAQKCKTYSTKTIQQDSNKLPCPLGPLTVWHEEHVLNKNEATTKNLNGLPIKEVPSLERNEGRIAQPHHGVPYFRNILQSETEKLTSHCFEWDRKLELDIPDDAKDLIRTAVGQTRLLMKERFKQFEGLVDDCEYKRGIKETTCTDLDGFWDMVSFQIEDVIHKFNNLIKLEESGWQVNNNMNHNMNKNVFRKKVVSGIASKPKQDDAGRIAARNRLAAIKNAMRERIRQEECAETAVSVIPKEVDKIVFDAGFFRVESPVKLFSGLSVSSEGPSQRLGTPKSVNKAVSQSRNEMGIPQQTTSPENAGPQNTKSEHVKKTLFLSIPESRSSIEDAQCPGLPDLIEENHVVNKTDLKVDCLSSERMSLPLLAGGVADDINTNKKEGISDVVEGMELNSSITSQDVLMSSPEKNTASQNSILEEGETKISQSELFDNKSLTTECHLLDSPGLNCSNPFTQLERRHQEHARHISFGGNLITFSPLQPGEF

[4] = biological target: T3, cysteines in MDA-MB-231 and Ramos cells (Homo sapiens, UniProt Q9Y570)
T3 sequence (Q9Y570 1-386): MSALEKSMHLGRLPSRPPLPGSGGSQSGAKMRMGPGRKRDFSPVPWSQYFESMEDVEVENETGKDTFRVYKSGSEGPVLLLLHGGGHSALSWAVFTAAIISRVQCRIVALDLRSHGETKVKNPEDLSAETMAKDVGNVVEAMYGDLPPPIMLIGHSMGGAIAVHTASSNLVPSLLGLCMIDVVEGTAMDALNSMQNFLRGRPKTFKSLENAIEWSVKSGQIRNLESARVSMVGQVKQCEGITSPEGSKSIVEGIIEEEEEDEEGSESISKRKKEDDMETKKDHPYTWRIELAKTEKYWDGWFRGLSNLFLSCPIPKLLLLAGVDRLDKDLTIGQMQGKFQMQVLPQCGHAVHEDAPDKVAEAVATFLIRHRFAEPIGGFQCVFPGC

[5] = biological target: cysteines in MDA-MB-231 and Ramos cells (Homo sapiens, UniProt Q14980); settings: 200 μM, insitu, 231
cysteines in MDA-MB-231 and Ramos cells (Homo sapiens, UniProt Q14980), sequence (Q14980 whole entry): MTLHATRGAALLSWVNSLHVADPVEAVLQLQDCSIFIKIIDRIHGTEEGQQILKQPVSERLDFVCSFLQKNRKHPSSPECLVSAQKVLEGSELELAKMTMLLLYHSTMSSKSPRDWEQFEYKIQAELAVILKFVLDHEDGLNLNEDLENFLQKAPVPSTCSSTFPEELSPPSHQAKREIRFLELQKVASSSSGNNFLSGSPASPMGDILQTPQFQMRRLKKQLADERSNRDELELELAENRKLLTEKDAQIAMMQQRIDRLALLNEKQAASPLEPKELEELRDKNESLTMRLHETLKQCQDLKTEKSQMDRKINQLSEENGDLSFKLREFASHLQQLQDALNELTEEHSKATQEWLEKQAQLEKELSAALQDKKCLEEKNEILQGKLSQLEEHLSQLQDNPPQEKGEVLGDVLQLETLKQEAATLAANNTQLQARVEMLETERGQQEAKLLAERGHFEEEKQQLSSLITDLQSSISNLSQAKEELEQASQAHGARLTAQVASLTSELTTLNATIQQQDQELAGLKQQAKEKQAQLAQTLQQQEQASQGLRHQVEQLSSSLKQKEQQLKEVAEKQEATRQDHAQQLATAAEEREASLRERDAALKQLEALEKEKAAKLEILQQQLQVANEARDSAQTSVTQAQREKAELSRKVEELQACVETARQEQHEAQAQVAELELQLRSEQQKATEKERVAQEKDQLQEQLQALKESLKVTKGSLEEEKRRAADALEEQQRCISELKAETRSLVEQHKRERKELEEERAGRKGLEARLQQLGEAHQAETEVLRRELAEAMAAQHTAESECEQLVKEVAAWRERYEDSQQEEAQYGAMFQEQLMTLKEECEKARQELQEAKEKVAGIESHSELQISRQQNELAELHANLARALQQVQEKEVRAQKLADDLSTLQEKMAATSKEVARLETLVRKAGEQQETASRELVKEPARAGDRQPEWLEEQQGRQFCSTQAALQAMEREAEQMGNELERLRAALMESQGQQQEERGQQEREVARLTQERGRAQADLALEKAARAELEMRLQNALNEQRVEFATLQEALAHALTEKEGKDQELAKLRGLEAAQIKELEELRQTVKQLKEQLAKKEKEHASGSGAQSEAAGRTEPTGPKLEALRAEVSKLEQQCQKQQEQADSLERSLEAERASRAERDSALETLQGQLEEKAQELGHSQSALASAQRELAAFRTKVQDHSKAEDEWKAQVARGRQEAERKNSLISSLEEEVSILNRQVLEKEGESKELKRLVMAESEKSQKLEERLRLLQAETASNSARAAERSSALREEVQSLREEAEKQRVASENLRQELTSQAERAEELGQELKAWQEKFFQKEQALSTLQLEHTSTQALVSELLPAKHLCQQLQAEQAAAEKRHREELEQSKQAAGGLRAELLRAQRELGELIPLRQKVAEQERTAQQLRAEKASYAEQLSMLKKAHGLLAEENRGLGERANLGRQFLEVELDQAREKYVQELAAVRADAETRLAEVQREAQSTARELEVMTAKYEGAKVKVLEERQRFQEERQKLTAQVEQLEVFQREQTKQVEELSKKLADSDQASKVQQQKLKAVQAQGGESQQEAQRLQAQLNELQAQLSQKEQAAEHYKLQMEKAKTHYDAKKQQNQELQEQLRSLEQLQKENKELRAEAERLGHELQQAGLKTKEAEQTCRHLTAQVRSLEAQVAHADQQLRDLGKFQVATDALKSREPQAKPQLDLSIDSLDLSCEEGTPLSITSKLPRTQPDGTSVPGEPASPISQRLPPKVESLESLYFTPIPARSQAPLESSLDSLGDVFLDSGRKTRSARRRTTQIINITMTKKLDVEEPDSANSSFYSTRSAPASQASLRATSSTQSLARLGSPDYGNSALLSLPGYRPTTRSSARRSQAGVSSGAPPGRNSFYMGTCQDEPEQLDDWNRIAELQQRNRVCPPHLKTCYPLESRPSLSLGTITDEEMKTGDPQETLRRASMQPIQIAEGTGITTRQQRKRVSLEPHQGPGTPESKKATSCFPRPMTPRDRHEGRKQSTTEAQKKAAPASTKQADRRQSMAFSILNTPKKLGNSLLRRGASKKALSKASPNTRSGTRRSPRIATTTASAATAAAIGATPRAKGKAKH

cysteines in MDA-MB-231 and Ramos cells (Homo sapiens, UniProt O75362), sequence (O75362 whole entry): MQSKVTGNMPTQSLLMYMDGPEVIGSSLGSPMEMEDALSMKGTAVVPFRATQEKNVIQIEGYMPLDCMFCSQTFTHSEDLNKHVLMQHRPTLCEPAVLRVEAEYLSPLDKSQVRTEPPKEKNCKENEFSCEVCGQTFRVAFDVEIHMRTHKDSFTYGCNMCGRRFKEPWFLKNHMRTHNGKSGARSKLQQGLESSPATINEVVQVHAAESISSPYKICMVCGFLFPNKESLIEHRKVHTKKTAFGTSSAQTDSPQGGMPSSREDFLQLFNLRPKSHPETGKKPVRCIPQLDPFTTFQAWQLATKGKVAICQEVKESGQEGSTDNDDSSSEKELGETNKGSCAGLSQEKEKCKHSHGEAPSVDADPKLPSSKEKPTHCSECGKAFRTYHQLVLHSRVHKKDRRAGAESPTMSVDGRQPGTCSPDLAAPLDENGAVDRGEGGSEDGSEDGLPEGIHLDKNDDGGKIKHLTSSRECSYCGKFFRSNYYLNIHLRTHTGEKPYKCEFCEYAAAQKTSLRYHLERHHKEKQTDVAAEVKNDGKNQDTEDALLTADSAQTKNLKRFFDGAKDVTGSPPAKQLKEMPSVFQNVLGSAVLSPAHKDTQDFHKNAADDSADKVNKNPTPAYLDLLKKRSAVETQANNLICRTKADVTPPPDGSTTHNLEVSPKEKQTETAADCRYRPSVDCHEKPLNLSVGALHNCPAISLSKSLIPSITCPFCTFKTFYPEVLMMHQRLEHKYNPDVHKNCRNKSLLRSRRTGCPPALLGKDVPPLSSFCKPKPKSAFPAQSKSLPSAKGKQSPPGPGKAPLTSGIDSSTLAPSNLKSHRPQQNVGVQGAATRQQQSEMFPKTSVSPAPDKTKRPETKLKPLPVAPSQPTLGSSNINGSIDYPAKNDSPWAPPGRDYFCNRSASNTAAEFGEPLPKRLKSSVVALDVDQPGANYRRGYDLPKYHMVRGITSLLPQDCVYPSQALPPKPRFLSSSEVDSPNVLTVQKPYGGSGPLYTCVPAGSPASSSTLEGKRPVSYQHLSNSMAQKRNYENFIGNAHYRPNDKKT

SMILES: COc1ccc2c(c1)CCCN2C(=O)CCl [compound 2]
- isoTOP-ABPP reactivity O75362_C286 ZNF217 ([1]; 200 μM, insitu, 231): 8.9
- isoTOP-ABPP reactivity P55265_C1224 ADAR [2]; 231: 9.1
- isoTOP-ABPP reactivity Q15398_C129 DLGAP5 ([3]; 200 μM, insitu, 231): 20.0
- isoTOP-ABPP reactivity Q9Y570_C381 PPME1 ([4]; 200 μM, insitu, 231): 12.6

SMILES: COc1ccc(C2CC(c3cccs3)=NN2C(=O)CCl)cc1 (stereo not shown) [compound 4]
- isoTOP-ABPP reactivity Q9Y570_C381 PPME1 ([4]; 100 μM in situ 231): 1.1

SMILES: O=C(CCl)N1CCC(Cc2ccccc2)CC1 [compound 9]
- isoTOP-ABPP reactivity Q9Y570_C381 PPME1 ([4]; 200 μM, insitu, 231): 20.0

SMILES: O=C(CCl)N1CCN(S(=O)(=O)c2ccccc2F)CC1 [compound 10]
- isoTOP-ABPP ratio O75362_C286 ([1]; 200 μM, insitu, 231): 2.6
- isoTOP-ABPP ratio, cysteine P55265_C1224 [2]; 231: 10.7
- isoTOP-ABPP ratio, cysteine Q9Y570_C381 ([4]; 200 μM, insitu, 231): 4.7

SMILES: Cn1cc(S(=O)(=O)N2CCOCC2)cc1C(=O)NC(=O)CCl [compound 11]
- isoTOP-ABPP ratio O75362_C286 ([1]; 100 μM in situ 231): 1.0
- isoTOP-ABPP ratio, cysteine Q15398_C129 ([3]; 100 μM in situ 231): 0.6

SMILES: O=C(CCl)NC(=O)NC12CC3CC(CC(C3)C1)C2 [compound 12]
- isoTOP-ABPP ratio O75362_C286 ([1]; 200 μM, insitu, 231): 20.0
- isoTOP-ABPP ratio, cysteine Q14980_C961 [5]: 20.0

SMILES: O=C(CCl)NCCc1c[nH]c2ccccc12 [compound 13]
- isoTOP-ABPP ratio O75362_C286 ([1]; 200 μM, insitu, 231): 1.1
- isoTOP-ABPP ratio O75362_C286 ([1]; 200 μM, insitu, ramos): 20.0
- isoTOP-ABPP ratio, cysteine P55265_C1224 [2]; 231: 1.9
- isoTOP-ABPP ratio, cysteine Q14980_C961 [5]: 2.2
- isoTOP-ABPP ratio, cysteine Q9Y570_C381 ([4]; 200 μM, insitu, 231): 0.9

SMILES: O=C(CCl)NC12CC3CC(CC(C3)C1)C2 [compound 21]
- isoTOP-ABPP ratio O75362_C286 ([1]; 200 μM, insitu, 231): 1.1
- isoTOP-ABPP ratio, cysteine P55265_C1224 [2]; 231: 2.2
- isoTOP-ABPP ratio, cysteine Q14980_C961 [5]: 3.7

Other lines, results leading:

- isoTOP-ABPP ratio O75362_C286 ([1]; 200 μM, insitu, 231): 1.0
- isoTOP-ABPP ratio P55265_C1224 [2]; 231: 1.4
- isoTOP-ABPP ratio Q14980_C961 [5]: 2.4
- isoTOP-ABPP ratio Q15398_C129 ([3]; 200 μM, insitu, 231): 0.5
SMILES: CC(C)CCOCCNC(=O)CCl [compound 27]

- isoTOP-ABPP ratio O75362_C286 ([1]; 200 μM, insitu, 231): 0.9
SMILES: COc1ccccc1OCCNC(=O)CCl [compound 28]

- isoTOP-ABPP ratio O75362_C286 ([1]; 200 μM, insitu, ramos): 1.0
- isoTOP-ABPP ratio P55265_C1224 ([2]; ramos): 1.8
- isoTOP-ABPP ratio Q15398_C129 ([3]; 200 μM, insitu, ramos): 1.2
- isoTOP-ABPP ratio Q9Y570_C381 ([4]; 200 μM, insitu, ramos): 1.2
SMILES: O=C(CCl)N1CCN(CC(=O)N2CCOCC2)CC1 [compound 29]

- isoTOP-ABPP ratio Q14980_C961 [5]: 1.1
- isoTOP-ABPP ratio Q15398_C129 ([3]; 200 μM, insitu, ramos): 2.4
SMILES: C=CC(=O)N(Cc1cccnc1)c1cc(C(F)(F)F)cc(C(F)(F)F)c1 [compound 31]

- isoTOP-ABPP ratio Q14980_C961 [5]: 2.6
- isoTOP-ABPP ratio Q15398_C129 ([3]; 200 μM, insitu, 231): 1.4
SMILES: C=CC(=O)Nc1cc(F)c(N2CCN(C(=O)OC(C)(C)C)CC2)c(F)c1 [compound 38]

- isoTOP-ABPP ratio O75362_C286 ([1]; 200 μM, insitu, 231): 1.0
- isoTOP-ABPP ratio Q9Y570_C381 ([4]; 200 μM, insitu, 231): 0.2
SMILES: Cc1ccc(C=C(C#N)C(=O)NCCN2CCOCC2)cc1 [compound 41]

- isoTOP-ABPP ratio O75362_C286 ([1]; 200 μM, insitu, 231): 20.0
- isoTOP-ABPP ratio P55265_C1224 [2]; 231: 20.0
SMILES: CC1CCc2ccccc2N1C(=O)CCl (stereo not shown) [compound 45]

- isoTOP-ABPP ratio P55265_C1224 [2]; 231: 1.3
- isoTOP-ABPP ratio Q15398_C129 ([3]; 200 μM, insitu, 231): 7.4
SMILES: O=C(CCl)Nc1cccc2ncccc12 [compound 51]

Source: US10670605B2, “Cysteine reactive probes and uses thereof” (The Scripps Research Institute, priority 2015, dated 2020)
